Like-named read-outs stand apart in the source and are kept apart here.
Tests used:
A549 (lung carcinoma) = test: CIMA assay (colorimetric indicator of metabolic activity), cell viability, A549; details: for Fold change in viability AVG / In vitro activity against cancer cell lines, A549 AVG: A549
Description: (§1) Stock solutions of the extracts were prepared in dimethylsulfoxide (DMSO) at 10 mg/mL and stored in 200 μl aliquots at −20° C. until analysis. This preparation ensured that the DMSO delivered to cells in culture never exceeded 1%.
(§2) Prepared extracts were assessed following chronic exposure conditions in which cells were seeded at 2×10^3 cells/well (96 well-plate) and incubated with test compounds for 72 h. Each compound was evaluated over a range of concentrations (0, 10, 25, 50 or 100 μg/ml). Cell proliferation was initially assessed using a standard colorimetric indicator of metabolic activity (CIMA) assay. In this assay, tetrazole reduction was evaluated as a measure of metabolic function that evaluates mitochondrial activity to determine the extent of cell proliferation within a culture. This assay is based on the reduction of yellow tetrazolium salt to purple formazan by mitochondrial reductases enzyme in viable cells, resulting in a color changed that confers a change in absorbance.

MDA-MB [1] = details: MDA-MB
[2] = test system: SKOV3 (ovarian adenocarcinoma); test: CIMA assay, cell viability, SKOV3; details: for Fold change in viability AVG / In vitro activity against cancer cell lines, SKOV AVG: SKOV
Description: as §1, §2

PC3 = test: CIMA assay, cell viability, PC3; details: for Fold change in viability AVG / In vitro activity against cancer cell lines, PC3 AVG: PC3
MDA-MB [3] = test: cells; details: Homo sapiens, read-out: Average cell viability, MDA-MB; for viability at 100 µg/mL: 100 ug/mL
[4] = test system: U373 (glioblastoma-astrocytoma); test: CIMA assay, cell viability, U373; details: for Fold change in viability AVG / In vitro activity against cancer cell lines, U373 AVG: U373
[5] = test system: CCD1079SK (fibroblast, noncancerous but proliferating); test: CIMA assay, cell viability, CCD1079SK; details: CCD
[6] = CIMA assay, cell viability, CCD1079SK; details: human, Average cell viability, CCD
[7] = test system: THP-1 (acute monocytic leukemia); test: CIMA assay, cell viability, THP-1; details: for Fold change in viability AVG / In vitro activity against cancer cell lines, THP-1 AVG: THP-1
[8] = Homo sapiens, A549, read-out: Average cell viability, A549, 100 ug/mL
[9] = Homo sapiens, SK-OV-3, read-out: Average cell viability, SKOV, 100 ug/mL
[10] = Homo sapiens, PC-3, read-out: Average cell viability, PC3, 100 ug/mL
[11] = Homo sapiens, U373 MG, read-out: Average cell viability, U373, 100 ug/mL
[12] = CCD1079SK fibroblasts (noncancerous, proliferating)
[13] = Homo sapiens, THP-1, read-out: Average cell viability, THP-1, 100 ug/mL

## CCCCCC(O)/C=C/C=C/CCCCCCCC(=O)O (stereo not shown) [77-31-34-6 A, 13-hydroxyoctadeca-9E,11E-dienoic acid]
A549 (lung carcinoma); 1.00 ug/mL (so in the source)
  Fold change in viability AVG: 0.08
A549 (lung carcinoma); 100 ug/mL
  In vitro activity against cancer cell lines, A549 AVG: 0.08
A549 (lung carcinoma); [8]
  viability at 100 µg/mL: 7%
MDA-MB [1]; 1.00 ug/mL (so in the source)
  Fold change in viability AVG: 0.13
MDA-MB [1]; 100 ug/mL
  In vitro activity against cancer cell lines, MDA-MB AVG: 0.13
[2]; [9]
  viability at 100 µg/mL: 53%
[2]; 1.00 ug/mL (so in the source)
  Fold change in viability AVG: 0.57
[2]; 100 ug/mL
  In vitro activity against cancer cell lines, SKOV AVG: 0.57
PC3; [10]
  viability at 100 µg/mL: 5%
PC3; 1.00 ug/mL (so in the source)
  Fold change in viability AVG: 0.05
PC3; 100 ug/mL
  In vitro activity against cancer cell lines, PC3 AVG: 0.05
MDA-MB [3]
  viability at 100 µg/mL: 12%
[4]; [11]
  viability at 100 µg/mL: 4%
[4]; 1.00 ug/mL (so in the source)
  Fold change in viability AVG: 0.04
[4]; 100 ug/mL
  In vitro activity against cancer cell lines, U373 AVG: 0.04
[5]; 1.00 ug/mL (so in the source)
  Fold change in viability AVG: 0.14
[6]; [12]
  viability at 72 h, 100 ug/mL: 13%
[7]; [13]
  viability at 100 µg/mL: 6%
[7]; 1.00 ug/mL (so in the source)
  Fold change in viability AVG: 0.07
[7]; 100 ug/mL
  In vitro activity against cancer cell lines, THP-1 AVG: 0.07

## CCCCCCCCCCCCCCCC(=O)OCC(COC1OC(CO)C(O)C(O)C1O)OC(=O)CCCCCCCCCCCCC (stereo not shown) [Compound 16, MGDG C16:0/C14:0]
A549 (lung carcinoma); 1 ug/mL
  Fold change in viability AVG: 1.13
  In vitro activity against cancer cell lines, A549 AVG: 1.13
A549 (lung carcinoma); 10 ug/mL
  Fold change in viability AVG: 1.16
  In vitro activity against cancer cell lines, A549 AVG: 1.16
A549 (lung carcinoma); 50 ug/mL
  Fold change in viability AVG: 0.99
  In vitro activity against cancer cell lines, A549 AVG: 0.99
A549 (lung carcinoma); 100 ug/mL
  Fold change in viability AVG: 0.60
  In vitro activity against cancer cell lines, A549 AVG: 0.60
A549 (lung carcinoma); Homo sapiens, A549, read-out: Average cell viability, A549, 1 ug/mL
  viability at 1 µg/mL: 97%
A549 (lung carcinoma); Homo sapiens, A549, read-out: Average cell viability, A549, 10 ug/mL
  viability at 10 µg/mL: 99%
A549 (lung carcinoma); Homo sapiens, A549, read-out: Average cell viability, A549, 50 ug/mL
  viability at 50 µg/mL: 85%
A549 (lung carcinoma); [8]
  viability at 100 µg/mL: 52%
MDA-MB [1]; 1 ug/mL
  Fold change in viability AVG: 1.08
  In vitro activity against cancer cell lines, MDA-MB AVG: 1.08
MDA-MB [1]; 10 ug/mL
  Fold change in viability AVG: 1.09
  In vitro activity against cancer cell lines, MDA-MB AVG: 1.09
MDA-MB [1]; 50 ug/mL
  Fold change in viability AVG: 0.76
  In vitro activity against cancer cell lines, MDA-MB AVG: 0.76
MDA-MB [1]; 100 ug/mL
  Fold change in viability AVG: 0.21
  In vitro activity against cancer cell lines, MDA-MB AVG: 0.21
[2]; Homo sapiens, SK-OV-3, read-out: Average cell viability, SKOV, 1 ug/mL
  viability at 1 µg/mL: 102%
[2]; Homo sapiens, SK-OV-3, read-out: Average cell viability, SKOV, 10 ug/mL
  viability at 10 µg/mL: 95%
[2]; Homo sapiens, SK-OV-3, read-out: Average cell viability, SKOV, 50 ug/mL
  viability at 50 µg/mL: 83%
[2]; [9]
  viability at 100 µg/mL: 68%
[2]; 1 ug/mL
  Fold change in viability AVG: 1.09
  In vitro activity against cancer cell lines, SKOV AVG: 1.09
[2]; 10 ug/mL
  Fold change in viability AVG: 1.02
  In vitro activity against cancer cell lines, SKOV AVG: 1.02
[2]; 50 ug/mL
  Fold change in viability AVG: 0.90
  In vitro activity against cancer cell lines, SKOV AVG: 0.90
[2]; 100 ug/mL
  Fold change in viability AVG: 0.74
  In vitro activity against cancer cell lines, SKOV AVG: 0.74
PC3; Homo sapiens, PC-3, read-out: Average cell viability, PC3, 1 ug/mL
  viability at 1 µg/mL: 100%
PC3; Homo sapiens, PC-3, read-out: Average cell viability, PC3, 10 ug/mL
  viability at 10 µg/mL: 96%
PC3; Homo sapiens, PC-3, read-out: Average cell viability, PC3, 50 ug/mL
  viability at 50 µg/mL: 72%
PC3; [10]
  viability at 100 µg/mL: 9%
PC3; 1 ug/mL
  Fold change in viability AVG: 1.04
  In vitro activity against cancer cell lines, PC3 AVG: 1.04
PC3; 10 ug/mL
  Fold change in viability AVG: 0.99
  In vitro activity against cancer cell lines, PC3 AVG: 0.99
PC3; 50 ug/mL
  Fold change in viability AVG: 0.75
  In vitro activity against cancer cell lines, PC3 AVG: 0.75
PC3; 100 ug/mL
  Fold change in viability AVG: 0.10
  In vitro activity against cancer cell lines, PC3 AVG: 0.10
MDA-MB [3]; 1 ug/mL
  viability at 1 µg/mL: 99%
MDA-MB [3]; 10 ug/mL
  viability at 10 µg/mL: 101%
MDA-MB [3]; 50 ug/mL
  viability at 50 µg/mL: 70%
MDA-MB [3]
  viability at 100 µg/mL: 20%
[4]; Homo sapiens, U373 MG, read-out: Average cell viability, U373, 1 ug/mL
  viability at 1 µg/mL: 108%
[4]; Homo sapiens, U373 MG, read-out: Average cell viability, U373, 10 ug/mL
  viability at 10 µg/mL: 95%
[4]; Homo sapiens, U373 MG, read-out: Average cell viability, U373, 50 ug/mL
  viability at 50 µg/mL: 48%
[4]; [11]
  viability at 100 µg/mL: 9%
[4]; 1 ug/mL
  Fold change in viability AVG: 1.09
  In vitro activity against cancer cell lines, U373 AVG: 1.09
[4]; 10 ug/mL
  Fold change in viability AVG: 0.97
  In vitro activity against cancer cell lines, U373 AVG: 0.97
[4]; 50 ug/mL
  Fold change in viability AVG: 0.49
  In vitro activity against cancer cell lines, U373 AVG: 0.49
[4]; 100 ug/mL
  Fold change in viability AVG: 0.09
  In vitro activity against cancer cell lines, U373 AVG: 0.09
[5]; 1 ug/mL
  Fold change in viability AVG: 1.16
[5]; 10 ug/mL
  Fold change in viability AVG: 1.08
[5]; 50 ug/mL
  Fold change in viability AVG: 0.48
[5]; 100 ug/mL
  Fold change in viability AVG: 0.21
[6]; CCD1079SK fibroblast cells (noncancerous, proliferating), 1 ug/mL
  viability at 72 h, 1 ug/mL: 106%
[6]; CCD1079SK fibroblast cells (noncancerous, proliferating), 10 ug/mL
  viability at 72 h, 10 ug/mL: 98%
[6]; CCD1079SK fibroblasts (noncancerous, proliferating), 50 ug/mL
  viability at 72 h, 50 ug/mL: 44%
[6]; [12]
  viability at 72 h, 100 ug/mL: 19%
[7]; Homo sapiens, THP-1, read-out: Average cell viability, THP-1, 1 ug/mL
  viability at 1 µg/mL: 101%
[7]; Homo sapiens, THP-1, read-out: Average cell viability, THP-1, 10 ug/mL
  viability at 10 µg/mL: 101%
[7]; Homo sapiens, THP-1, read-out: Average cell viability, THP-1, 50 ug/mL
  viability at 50 µg/mL: 86%
[7]; [13]
  viability at 100 µg/mL: 46%
[7]; 1 ug/mL
  Fold change in viability AVG: 1.14
  In vitro activity against cancer cell lines, THP-1 AVG: 1.14
[7]; 10 ug/mL
  Fold change in viability AVG: 1.15
  In vitro activity against cancer cell lines, THP-1 AVG: 1.15
[7]; 50 ug/mL
  Fold change in viability AVG: 0.75
  In vitro activity against cancer cell lines, THP-1 AVG: 0.75
[7]; 100 ug/mL
  Fold change in viability AVG: 0.52
  In vitro activity against cancer cell lines, THP-1 AVG: 0.52

## CCCCCCCCCCCCOS(=O)(=O)[O-].[Na+] [cont-SDS]
A549 (lung carcinoma); 250 ug/ml
  In vitro activity against cancer cell lines, A549 AVG: 0.13
MDA-MB [1]; 250 ug/ml
  In vitro activity against cancer cell lines, MDA-MB AVG: 0.16
[2]; 250 ug/ml
  In vitro activity against cancer cell lines, SKOV AVG: 0.10
PC3; 250 ug/ml
  In vitro activity against cancer cell lines, PC3 AVG: 0.08
[4]; 250 ug/ml
  In vitro activity against cancer cell lines, U373 AVG: 0.05
[7]; 250 ug/ml
  In vitro activity against cancer cell lines, THP-1 AVG: 0.18
